In the assay the target is T1, human NPY Y5 receptor (Homo sapiens, UniProt Q15761).
T1 construct: expressed in transfected cells; host or cells: COS-7, CHO and LM(tk-) cells (ATCC); vectors pcDNA3, pRc/RSV, pCI-neo; membrane preparations
T1 sequence (Q15761 1-445): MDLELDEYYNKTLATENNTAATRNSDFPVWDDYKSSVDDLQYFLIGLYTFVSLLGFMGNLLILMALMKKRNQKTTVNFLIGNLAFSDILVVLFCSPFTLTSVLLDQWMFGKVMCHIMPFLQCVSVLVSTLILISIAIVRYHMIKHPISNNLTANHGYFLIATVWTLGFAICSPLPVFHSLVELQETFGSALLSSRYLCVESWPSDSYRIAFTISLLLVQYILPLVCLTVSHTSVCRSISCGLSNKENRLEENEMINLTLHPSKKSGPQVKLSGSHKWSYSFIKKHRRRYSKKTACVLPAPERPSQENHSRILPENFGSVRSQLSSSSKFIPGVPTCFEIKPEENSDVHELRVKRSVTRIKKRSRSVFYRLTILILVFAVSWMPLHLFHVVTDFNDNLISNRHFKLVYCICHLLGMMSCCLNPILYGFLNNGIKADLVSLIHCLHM
Put plainly: Test of Inhibition of NPY Binding ([125I] peptide YY binding to membrane preparations). To be noted: membranes of cells expressing NPY Y5 receptor, 25° C., 2 hours, read-out: concentration needed to inhibit 50% of the specific binding of peptide YY (IC50 value). The text has this: cDNA Sequence encoding a human NPY Y5 receptor [International Publication WO 96/16542] was cloned into expression vectors pcDNA3, pRc/RSV (manufactured by Invitrogen) and pCI-neo (manufactured by Promega). Using the cationic lipid method [see Proceedings of the National Academy of Science of the United States of America, vol.84, p.7413 (1987)], host cells COS-7, CHO and LM(tk-) (American Type Culture Collection) were transfected with the thus prepared expression vectors to obtain cells in which the NPY Y5 receptor had been expressed.
Each of the membrane preparations thus prepared from the cells in which the NPY Y5 receptor had been expressed was incubated together with each compound to be tested and 20,000 cpm of [^125 I] peptide YY (manufactured by Amersham) at 25° C. for 2 hours in an assay buffer solution (25 mM HEPES buffer, pH 7.4, containing 10 mM magnesium chloride, 1 mM phenylmethylsulfonyl fluoride and 0.1% bacitracin) and then, the reaction mixture was filtered through a glass filter GF/C. After washing with 50 mM Tris buffer, pH 7.4, containing 0.3% BSA, radioactivity on the glass filter was measured using a gamma counter. […] As the result, IC50 value of the compound of Example 17 was calculated to be […].

For `COc1ccc(-c2cc(NC(=O)N3CCN(c4cccc(Cl)c4)CC3)[nH]n2)cc1` [Example 17, 3-[4-(3-chlorophenyl)piperazinyl]carbonylamino-5-(4-methoxyphenyl)pyrazole], the IC50 is 27 nM.

(Values after patent US6043246A, “Urea derivatives” (Banyu Pharmaceutical Co., Ltd., priority 1996, dated 2000).)
